This is an account of results in patent publication US20250346600A1, “TRICYCLIC DERIVATIVES AND RELATED USES” (MOMA Therapeutics, Inc., priority 2023, published 2025).

The target of assay [1] is Full length WRN protein (aa 2-1432) (Homo sapiens (Human), UniProt Q14191). As to the kind of experiment: WRN ATPase ADP-Glo biochemical assay, Assay Format B (100 μM ATP). The conditions noted are these: 0.25 nM WRN, 100 nM C6.18 ssDNA, 60 min preincubation, read-out: ATPase ADPGlo AC50 (uM)- Assay Format B.
Sequence of Full length WRN protein (aa 2-1432) (Q14191 2-1432): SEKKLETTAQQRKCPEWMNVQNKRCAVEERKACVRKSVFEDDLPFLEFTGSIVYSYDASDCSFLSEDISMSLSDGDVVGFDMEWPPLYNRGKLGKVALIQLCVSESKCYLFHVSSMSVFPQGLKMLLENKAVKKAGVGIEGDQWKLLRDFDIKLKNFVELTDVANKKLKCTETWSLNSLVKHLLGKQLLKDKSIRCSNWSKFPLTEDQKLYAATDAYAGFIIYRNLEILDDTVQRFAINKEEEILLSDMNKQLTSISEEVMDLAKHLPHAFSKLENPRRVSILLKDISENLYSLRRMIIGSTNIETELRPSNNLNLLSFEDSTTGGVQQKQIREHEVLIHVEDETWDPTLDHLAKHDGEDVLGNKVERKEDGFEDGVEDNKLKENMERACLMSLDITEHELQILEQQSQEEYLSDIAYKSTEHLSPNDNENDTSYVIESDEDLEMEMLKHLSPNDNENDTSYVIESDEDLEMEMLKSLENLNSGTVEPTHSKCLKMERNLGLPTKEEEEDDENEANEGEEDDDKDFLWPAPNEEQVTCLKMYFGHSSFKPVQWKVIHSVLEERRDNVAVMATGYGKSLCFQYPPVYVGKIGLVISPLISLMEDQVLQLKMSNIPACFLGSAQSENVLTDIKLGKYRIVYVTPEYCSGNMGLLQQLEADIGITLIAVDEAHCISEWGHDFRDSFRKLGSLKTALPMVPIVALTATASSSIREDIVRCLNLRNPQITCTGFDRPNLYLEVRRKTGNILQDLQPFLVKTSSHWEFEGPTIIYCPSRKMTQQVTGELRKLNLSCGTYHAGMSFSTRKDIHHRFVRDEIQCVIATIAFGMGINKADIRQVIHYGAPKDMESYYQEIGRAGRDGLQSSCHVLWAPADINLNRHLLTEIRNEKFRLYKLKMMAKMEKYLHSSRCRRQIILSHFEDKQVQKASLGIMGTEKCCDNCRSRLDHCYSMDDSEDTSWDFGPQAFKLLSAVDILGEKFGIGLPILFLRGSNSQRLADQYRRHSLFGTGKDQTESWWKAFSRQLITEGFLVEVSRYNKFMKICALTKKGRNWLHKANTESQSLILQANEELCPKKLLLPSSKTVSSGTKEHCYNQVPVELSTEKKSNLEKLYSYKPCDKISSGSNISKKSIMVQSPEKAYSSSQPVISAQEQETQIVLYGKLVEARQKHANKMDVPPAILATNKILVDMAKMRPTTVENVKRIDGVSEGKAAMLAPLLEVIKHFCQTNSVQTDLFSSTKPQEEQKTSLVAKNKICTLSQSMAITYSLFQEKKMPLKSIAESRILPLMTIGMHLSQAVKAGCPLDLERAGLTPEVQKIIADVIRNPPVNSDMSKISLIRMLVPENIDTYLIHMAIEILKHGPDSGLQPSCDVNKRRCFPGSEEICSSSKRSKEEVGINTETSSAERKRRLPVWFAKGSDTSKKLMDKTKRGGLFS
For a further assay, the system named is HCT116 cells. As to the kind of experiment: HCT116 (MSI) 7 day viability, CellTiter Glo. In kind it is cell-based. The conditions noted are these: 7 days, read-out: HCT116 (MSI) Viability 7 Day Abs AC50. The method in brief:
(§1)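 For each line, compound dilution series (3-fold, 10 points) met a defined seeding density—HCT116 50, HT29 500 cells/well—followed by 7 days at 37 °C. Luminescent ATP signal, background-corrected with no-cell wells, gave four-parameter logistic IC50s.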

The test system of another assay is HT29 cells. As to the kind of experiment: HT29 (MSS) 7 day viability, CellTiter Glo. In kind it is cell-based. The following applies: 7 days, read-out: HT29 (MSS) Viability 7 Day CTGAbs AC50. The method in brief:
as §1

Where two headings read alike, the source gives them in different places. Where only a bound is given, the exact number is not on record here.

With `C=CC(=O)N1CCc2nn(-c3ccc(C4CC4)c(F)c3O)c3c2C(C1)N(C(=O)c1cnc(C(C)(F)F)c(F)c1N)CC3` (stereo not drawn) [Compound 227, 1-(5-(4-amino-6-(1,1-difluoroethyl)-5-fluoronicotinoyl)-2-(4-cyclopropyl-3-fluoro-2-hydroxyphenyl)-2,3,4,5,5a,6,8,9-octahydro-7H-1,2,5,7-tetraazabenzo[cd]azulen-7-yl)prop-2-en-1-one], the AC50 in assay [1] was 0.005 to 0.015 µM; in the assay on HCT116 cells (Homo sapiens, HCT-116, 168 h) it was 1 to 100 nM; in the assay on HT29 cells (Homo sapiens, HT-29, 168 h), < 1000 nM.
The like results for `C=CC(=O)N1CCc2nn(-c3ccc(C4CC4)cc3O)c3c2C(C1)N(C(=O)c1nnc(Br)cc1N)CC3` (stereo not drawn) [Compound 228, 1-(5-(4-amino-6-bromopyridazine-3-carbonyl)-2-(4-cyclopropyl-2-hydroxyphenyl)-2,3,4,5,5a,6,8,9-octahydro-7H-1,2,5,7-tetraazabenzo[cd]azulen-7-yl)prop-2-en-1-one] were, in that order, 0.0015 to 0.005 µM, 1 to 100 nM and > 3000 nM.
As for `C=CC(=O)N1CCc2nn(-c3ccc(C4CC4)c(F)c3O)c3c2C(C1)N(C(=O)c1cnc(Br)c(F)c1N)CC3` (stereo not drawn) [Compound 229, 1-(5-(4-amino-6-bromo-5-fluoronicotinoyl)-2-(4-cyclopropyl-3-fluoro-2-hydroxyphenyl)-2,3,4,5,5a,6,8,9-octahydro-7H-1,2,5,7-tetraazabenzo[cd]azulen-7-yl)prop-2-en-1-one], the AC50 is 0.015 to 0.055 µM in assay [1], 1 to 100 nM with HCT116 cells and > 3000 nM with HT29 cells.
In the case of `C=CC(=O)N1CC2c3c(nn(-c4ccc(C5CC5)cc4)c3CCN2C(=O)c2ccc(C(F)(F)F)cc2)C(n2ccccc2=O)C1` (stereo not drawn) [Compound 231, 1-(7-acryloyl-2-(4-cyclopropylphenyl)-5-(4-(trifluoromethyl)benzoyl)-3,4,5,5a,6,7,8,9-octahydro-2H-1,2,5,7-tetraazabenzo[cd]azulen-9-yl)pyridin-2(1H)-one], the AC50 in assay [1] was 0.015 to 0.055 µM; with HCT116 cells (Homo sapiens, HCT-116, 168 h), 1 to 100 nM; in the assay on HT29 cells (Homo sapiens, HT-29, 168 h), > 3000 nM.
The like results for `C=CC(=O)N1CC(OC2CC2)c2nn(-c3ccc(C4CC4)cc3O)c3c2C(C1)N(C(=O)c1cnc(C(F)(F)F)cc1N)CC3` (stereo not drawn) [Compound 232, 1-(5-(4-amino-6-(trifluoromethyl)nicotinoyl)-9-cyclopropoxy-2-(4-cyclopropyl-2-hydroxyphenyl)-2,3,4,5,5a,6,8,9-octahydro-7H-1,2,5,7-tetraazabenzo[cd]azulen-7-yl)prop-2-en-1-one] were, in that order, 0.005 to 0.015 µM, 1 to 100 nM and > 3000 nM.
For the compound `C=CC(=O)N1CC2c3c(nn(-c4ccc(C5CC5)cc4)c3CCN2C(=O)c2cnc(C(F)(F)F)cc2N)C2(C1)CN(c1nnc(C)s1)C2` (stereo not drawn) [Compound 233, 1-(5′-(4-amino-6-(trifluoromethyl)nicotinoyl)-2′-(4-cyclopropylphenyl)-1-(5-methyl-1,3,4-thiadiazol-2-yl)-2′,3′,4′,5′,5a′,6′-hexahydro-1′,2′,5′,7′-tetraazaspiro[azetidine-3,9′-benzo[cd]azulen]-1′(9a′),2a′-dien-7′(8′H)-yl)prop-2-en-1-one], the AC50 in assay [1] is > 0.055 µM; with HCT116 cells (Homo sapiens, HCT-116, 168 h), 100 to 250 nM; with HT29 cells (Homo sapiens, HT-29, 168 h), > 3000 nM.
On the same counts, the results for `C=CC(=O)N1CC(OCc2cnc3sccn23)c2nn(-c3ccc(C4CC4)cc3)c3c2C(C1)N(C(=O)c1ccc(C(F)(F)F)nc1)CC3` (stereo not drawn) [Compound 234, 1-(2-(4-cyclopropylphenyl)-9-(imidazo[2,1-b]thiazol-5-ylmethoxy)-5-(6-(trifluoromethyl)nicotinoyl)-2,3,4,5,5a,6,8,9-octahydro-7H-1,2,5,7-tetraazabenzo[cd]azulen-7-yl)prop-2-en-1-one] are 0.015 to 0.055 µM, 1 to 100 nM and > 3000 nM.
